From patent publication US20230227546A1, “TYPE 2 CYTOKINES AS PREDICTORS OF DISEASE SEVERITY AND/OR AS T[…] FOR COVID-19” (priority 2020, published 2023)

Tested on: COVID-19
Test: Retrospective analysis of international COVID-19 cohort (TriNetX COVID-19 Research Network), Dupilumab
Assay type: in vivo, human
Conditions: for Risk Difference (95% CI), Deceased / Risk Difference (95% CI), Ventilated: with vs without Dupilumab
[1] = Diagnoses Matching, 65 patients with Dupilumab
[2] = Dupilumab prescribed prior to COVID-19 diagnosis
[3] = Full Cohort, 81 patients with Dupilumab

For “Dupilumab: anti-human IL4Rα monoclonal antibody that blocks IL-13 and IL-4 signaling; sold as DUPIXENT”, the “Deceased (number of patients) With Dupilumab” value (1:1 Propensity Score Matching, 81 patients) was 0, the “Risk Difference (95% CI), Deceased” value (1:1 Propensity Score Matching) was 12.3% (5.2-19.5) and the “Serum C-Reactive Protein (CRP)” value (COVID-19 patients With Dupilumab) was 25.3 mg/L. For the same substance, the “Deceased (number of patients) With Dupilumab” value [1] was 0, the “Ventilated (number of patients) With Dupilumab” value [1] was 0 and the “Risk Difference (95% CI), Deceased” value (Diagnoses Matching) was 1.83% (1.69-1.97). The “Risk Difference (95% CI), Ventilated” value (Diagnoses Matching) was 0.67% (0.58-0.75), the “risk of death in COVID-19” value [2] was “lower risk” and the “risk of ventilation in COVID-19” value [2] was “lower risk”. The CRP levels (Dupilumab-prescribed patients with COVID-19) was “reduced”, the “Deceased (number of patients) With Dupilumab” value [3] was 0 and the “Ventilated (number of patients) With Dupilumab” value [3] was 0. For the same substance, the “Risk Difference (95% CI), Deceased” value (Full Cohort) was 1.98% (1.94-2.03), the “Risk Difference (95% CI), Ventilated” value (Full Cohort) was 0.37% (0.35-0.39) and the “CRP Sub-cohort Difference” value (With vs Without Dupilumab) was 12.
